Laboratory results as given in patent US20250101062A1, “ANTIMICROBIAL PEPTIDES” (Board of Regents of the University of Nebraska, priority 2023, published 2025).
≈ marks a conversion by molar mass, not a printed value. Read-outs that look alike come from different tables or passages of the source. Where a SMILES comes first, the peptide text is derived from it. Where no end group is shown, it is not given here.

Assays:
[1] = system: human red blood cells; test: Hemolytic assay; type: cell-based
Description: The hemolytic effects of peptides were evaluated using a method with minor modifications (Lakshmaiah Narayana, et al. (2021) ACS Infect. Dis., 7:1795-1808). Human red blood cells (hRBCs, UNMC Blood Bank) were washed (3×) with blood bank saline (isotonic solution 0.90% w/v, Fisher). Cells were diluted to 2% using the saline solution, and aliquots of 90 μL were added to a 96-well polystyrene microplate containing 10 μL of serially diluted peptide solutions. After incubation at 37° C. for 1 hour, plates were centrifuged at 500 g for 5 minutes. Aliquots of the supernatant were transferred to a 96-well microplate. The amount of hemoglobin released was measured at 545 nm by using a ChroMate™ microplate reader. […] HC50 is defined as the concentration of the peptide that caused 50% lysis.
The hemolytic effects of peptides were evaluated (Narayana, et al. (2020) Proc. Natl. Acad. Sci., 117(32):19446-9454). In brief, human red blood cells (UNMC Blood Bank) were washed (3×) and diluted to 2% using the saline solution. Aliquots of 90 μL were mixed with 10 μL of serially diluted peptide solutions. After incubation at 37° C. for 1 hour, plates were centrifuged at 500 g for 5 minutes and aliquots of the supernatant were transferred to a new 96-well microplate to measure the amount of hemoglobin released at 545 nm (relative to 1% Triton® X-100) using a ChroMate® Microplate Reader.

[2] = system: P. aeruginosa E411-17; test: microbe, parasite or virus in culture; type: cell-based, Pseudomonas aeruginosa; settings: for MIC: read-out: Antimicrobial activity (MIC)
Outline: (§1)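 Broth microdilution with twofold peptide dilutions, using exponential-phase bacteria at about 10^5 CFU/mL in MHB, incubated overnight at 37 °C and read at OD600. MIC, reported as a range, is the peptide concentration with no growth. Some tests used diluted MHB/TSB/LB, adjusted pH, or added NaCl or human serum.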

[3] = system: S. epidermidis 1457; test: microbe, parasite or virus in culture; type: cell-based, Staphylococcus epidermidis
Outline: (§2)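 Peptides twofold serially diluted against exponential-phase resistant clinical isolates at ~10^5 CFU/mL in MHB (also diluted MHB, TSB or LB in one protocol), CLSI-based broth microdilution. Incubated overnight at 37° C., OD 600 nm read; MIC taken as lowest concentration without growth, reported as ranges.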

[4] = system: S. aureus USA300 LAC; test: microbe, parasite or virus in culture; type: cell-based, Staphylococcus aureus; settings: for MIC: read-out: Antimicrobial activity (MIC)
Outline: as §1

[5] = system: K. pneumoniae E406-17; type: cell-based, Klebsiella pneumoniae
Description: The following resistant bacterial clinical strains were used in this study: S. aureus USA300 LAC, S. epidermidis 1457, E. coli E423-17, P. aeruginosa E411-17, K. pneumoniae E406-17, and A. baumannii B28-16. While the S. aureus USA300 strain is methicillin-resistant, most of the Gram-negative bacteria contain extended-spectrum beta-lactamase and are resistant to beta-lactam antibiotics. Peptide activity against bacteria was tested using an established lab protocol (Mishra, et al. (2017) Acta Biomater., 49:316-328). In brief, a peptide concentration gradient with twofold dilution was made in the 96-well polystyrene microplate at 10 μL per well. Bacteria were grown to the exponential phase (i.e., optical density at 600 nm≈0.5), diluted to ˜10^5 CFU/mL in different percentages of MHB, TSB, or LB, and partitioned into the 96-well microplate at 90 μL per well. […] They were diluted with autoclaved distilled water to obtain different percentages. The microplates were incubated at 37° C. overnight and read on a ChroMate™ 4300 microplate reader at 600 nm (GMI, Ramsey, MN). The peptide concentration in the wells without bacterial growth is the MIC. As is the convention, MIC values were represented as ranges.
(§3) Peptide activity against bacteria were tested using the CLSI standard procedure with minor modifications (Clinical and Laboratory Standards Institute (2018) Performance standards for antimicrobial susceptibility testing, 9th ed.; Mishra, et al. (2019) Proc. Natl. Acad. Sci., 116(27):13517-13522). In brief, a peptide concentration gradient with twofold dilution was made in the 96-well polystyrene microplate at 10 μL per well. Bacteria were grown to the exponential phase (i.e., optical density at 600 nm≈0.5), diluted to ˜10^5 CFU/mL in MHB, and partitioned into the 96-well microplate at 90 μL per well. The microplates were incubated at 37° C. overnight and read on a ChroMate® 4300 Microplate Reader at 600 nm (GMI, Ramsey, MN). The peptide concentration in the wells without bacterial growth is the minimal inhibitory concentration (MIC). As the convention, MIC values were represented as ranges.

[6] = system: A. baumannii B28-16; type: cell-based, Acinetobacter baumannii
Outline: as §2

[7] = system: E. coli E416-17; type: cell-based, Escherichia coli
Description: as §3

[8] = target: T1, chymotrypsin (Bos taurus, UniProt P00766); type: in vitro ADME, mammalian
T1 construct: purchased Thermo Fisher Scientific

[9] = system: trypsin; settings: peptide:protease 40:1, 37° C., 1 hour
Description: A solution of peptide/protease (40:1 molar ratio) was made in phosphate-buffered saline (PBS; pH 7.1, Gibco, NY) and incubated at 37° C. for 1 hour. As controls, peptides without proteases were also incubated in the same manner. Then, aliquots of 10 μL were transferred to a 96-well polystyrene microplate and mixed with the exponential-phase MRSA USA300 culture as performed in the antibacterial activity assays above.

[10] = target: T2, pepsin (Sus scrofa, UniProt P00791); type: in vitro ADME, mammalian
T2 construct: purchased Thermo Fisher Scientific

[11] = system: E. coli E423-17; type: cell-based, Escherichia coli
[12] = system: E. coli E423-17; test: Membrane permeabilization (propidium iodide); type: cell-based, Escherichia coli; settings: Example 1, 1×MIC
[13] = system: P. aeruginosa E411-17; test: Killing kinetics; type: cell-based, Pseudomonas aeruginosa; settings: 4×MIC
Description: For bacterial killing kinetics study, MRSA USA300 and P. aeruginosa E411-17 was grown to the exponential phase (OD600˜0.3) in MHB. The culture was diluted to OD600 0.001 (˜10^5 CFU/mL). One milliliter of bacterial suspension was then mixed with the peptide, colistin or daptomycin at 4×MIC and incubated at 37° C. After 15, 30, 60, 90, and 120 minutes incubation, 50 μL was taken and serially diluted with 1×PBS. Then, 50 μL of the diluted suspension was plated on Mannitol Salt Agar (MRSA USA300) or Cetrimide Agar (P. aeruginosa E411-17) plates (NEOGEN, MI). The plates were incubated overnight at 37° C. for bacterial CFU count the next day.

[14] = system: E. coli E423-17; type: cell-based, Escherichia coli; settings: DMEM

T2 sequence (P00791 60-385): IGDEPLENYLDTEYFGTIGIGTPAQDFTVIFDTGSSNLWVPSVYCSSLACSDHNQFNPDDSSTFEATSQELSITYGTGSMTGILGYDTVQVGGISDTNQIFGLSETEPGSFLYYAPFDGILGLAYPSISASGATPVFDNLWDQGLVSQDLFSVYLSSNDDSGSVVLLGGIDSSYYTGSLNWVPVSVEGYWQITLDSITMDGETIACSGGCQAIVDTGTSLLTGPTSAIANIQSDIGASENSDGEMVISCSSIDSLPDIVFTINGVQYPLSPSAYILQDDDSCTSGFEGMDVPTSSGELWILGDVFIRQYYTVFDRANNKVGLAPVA

Compound	HC10-based therapeutic index (HC10/MIC) [1]	Hemolysis (HC10), 10% hemolytic concentration [1] [µM]	Hemolysis (HC50), 50% hemolytic concentration [1] [µM]	Minimal inhibitory concentration (MIC) P. aeruginosa E411-17 [2] [µM]	Minimal inhibitory concentration (MIC) S. epidermidis 1457 [3] [µM]	Minimal inhibitory concentration (MIC) S. aureus USA300 [4] [µM]	Minimal inhibitory concentration (MIC) K. pneumoniae E406-17 [5] [µM]	Minimal inhibitory concentration (MIC) A. baumannii B28-16 [6] [µM]	Minimal inhibitory concentration (MIC) E. coli E416-17 [7] [µM]	other results
N=C(N)NCCC[C@H](NC(=O)[C@@H](N)CCCCN)C(=O)N[C@@H](Cc1c[nH]c2ccccc12)C(=O)N[C@@H](Cc1ccc(-c2ccccc2)cc1)C(=O)N[C@@H](CCC(N)=O)C(=O)N[C@@H](Cc1c[nH]c2ccccc12)C(=O)N[C@@H](Cc1ccc(-c2ccccc2)cc1)C(=O)N[C@@H](CCCCN)C(N)=O [Bip-KR-8+] (HELM PEPTIDE1{K.R.W.[O=C([C@H](Cc1ccc(-c2ccccc2)cc1)N[*:1])[*:2]].Q.W.[O=C([C@H](Cc1ccc(-c2ccccc2)cc1)N[*:1])[*:2]].K.[am]}$$$$V2.0)	~1	15	> 200	16 to 32	4 (≈ 5.51 µg/mL)	4 (≈ 5.51 µg/mL)	>32	32 (≈ 44.1 µg/mL)	16 (≈ 22 µg/mL)	
CC(C)C[C@H](N)C(=O)N[C@@H](Cc1c[nH]c2ccccc12)C(=O)NCC(=O)N[C@@H](CCCNC(=N)N)C(=O)N[C@@H](Cc1ccccc1)C(=O)N[C@@H](Cc1ccccc1)C(=O)N[C@@H](CCCNC(=N)N)C(=O)N[C@@H](CCCCN)C(=O)N[C@@H](Cc1ccc(-c2ccccc2)cc1)C(=O)N[C@@H](CCCCN)C(N)=O [Bip-LL-10+] (HELM PEPTIDE1{L.W.G.R.F.F.R.K.[O=C([C@H](Cc1ccc(-c2ccccc2)cc1)N[*:1])[*:2]].K.[am]}$$$$V2.0)	25	100	> 200	4 (≈ 5.84 µg/mL)	4 (≈ 5.84 µg/mL)	2 to 4	>32	8 (≈ 11.7 µg/mL)	4 (≈ 5.84 µg/mL)	
CC(C)C[C@H](NC(=O)[C@H](Cc1ccccc1)NC(=O)[C@H](CCCNC(=N)N)NC(=O)[C@H](CCCCN)NC(=O)[C@H](Cc1ccc(-c2ccccc2)cc1)NC(=O)[C@@H](N)CCCNC(=N)N)C(=O)N[C@@H](CCCNC(=N)N)C(=O)N[C@@H](CC(N)=O)C(=O)N[C@@H](Cc1ccc(-c2ccccc2)cc1)C(=O)N[C@H](C(N)=O)C(C)C [Bip-RIK-10+] (HELM PEPTIDE1{R.[O=C([C@H](Cc1ccc(-c2ccccc2)cc1)N[*:1])[*:2]].K.R.F.L.R.N.[O=C([C@H](Cc1ccc(-c2ccccc2)cc1)N[*:1])[*:2]].V.[am]}$$$$V2.0)	<4		~30	2 (≈ 3.07 µg/mL)	2 (≈ 3.07 µg/mL)	1 (≈ 1.53 µg/mL)	2 to 4	2 to 4	2 (≈ 3.07 µg/mL)	Hemolysis (HC10), 10% hemolytic concentration ([1]; red cells of human): < 8 µM
N=C(N)NCCC[C@@H](N)C(=O)N[C@H](CCCNC(=N)N)C(=O)N[C@H](Cc1c[nH]c2ccccc12)C(=O)N[C@H](Cc1c[nH]c2ccccc12)C(=O)N[C@H](CCCNC(=N)N)C(=O)N[C@H](Cc1c[nH]c2ccccc12)C(=O)N[C@H](Cc1c[nH]c2ccccc12)C(=O)N[C@H](CCCNC(=N)N)C(N)=O [LL-37mini (D-form)] (HELM PEPTIDE1{[dR].[dR].[dW].[dW].[dR].[dW].[dW].[dR].[am]}$$$$V2.0)										activity after protease incubation [8]: remained active; activity after protease incubation [9]: remained active; activity after protease incubation [10]: retained antibacterial activity
Colistin [reference compound]										hemolysis ([1]; at 400 μM): did not lyse human red blood cells even at 400 μM; Antimicrobial activity (MIC) ([2]; Human serum 5%): 1 to 2 µM; MIC ([2]; Human serum 10%): 2 µM; Antimicrobial activity (MIC) P. aeruginosa E411-17 ([2]; MHB, Table 8): 1 to 2 µM; MIC ([2]; NaCl (150 mM)): 2 µM; MIC ([2]; pH 6.21): 2 µM; Antimicrobial activity (MIC) ([2]; pH 7.22): 1 to 2 µM; Antimicrobial activity (MIC) ([2]; pH 8.13): 1 to 2 µM; Antimicrobial activity (MIC) E. coli E423-17 ([11]; MHB, Table 8): 1 to 2 µM; membrane permeabilization [12]: powerful membrane permeator; time to kill [13]: 30 min; MIC ([4]; Human serum 5%): >8 µM; MIC ([4]; Human serum 10%): >8 µM; MIC ([4]; NaCl (150 mM)): >8 µM; MIC ([4]; pH 6.21): >8 µM; MIC ([4]; pH 7.22): >8 µM; MIC ([4]; pH 8.13): >8 µM; Antimicrobial activity (MIC) A. baumannii B28-16 ([6]; MHB, Table 8): 2 µM
RIKDFLRNLV-NH2 (C-terminus assumed) [RIK-10]										Antimicrobial activity (MIC) [14]: 8 µM; Antimicrobial activity (MIC) ([11]; E423-17): 32 to 64 µM; Antimicrobial activity (MIC) ([11]; MHB 100%): 16 µM; Antimicrobial activity (MIC) ([4]; MHB 12.5%): active
